Measured values: patent US20260263468A1 (Fundación Instituto de Investigación Sanitaria Fundación …, priority 2023, published 2026)

How the values were obtained:
C2C12 cells = assay: Cell proliferation assay (AlamarBlue); format: cell-based; settings: 10^−9-10^−5 M, 24 and 48 hours
Experimental: C2C12 cells (American Type Culture Collection, ATCC, Manassas, VA, USA) were cultured in DMEM supplemented with 10% FBS and 1% penicillin-streptomycin. To induce myogenic differentiation, 70% confluence C2C12 cells were culture in DMEM containing 2% HS (horse serum). Cells were maintained in a humidified chamber at 37° C., in 95% air and 5% CO2. Media was replaced with fresh every 48h.
C2C12 cells were plated in 96-well plates (Corning, Cultek, Spain) (12.500 cells/well). Cell proliferation was measured using AlamarBlue assay according to the manufacturer's instructions, at 24 and 48 h of myogenic differentiation.

C2C12 [1] = assay: Western blot of myogenesis markers during differentiation; format: cell-based; settings: 1 μM
Experimental: (§1) Cells were lysed with RIPA buffer and protein concentration was determined by BCA. […] Variations in intensity were expressed as % of basal (day 0) and expressed as mean±SEM. All results were calculated as a percentage of non-differentiated controls to minimize the intrinsic variation among different experiments.

C2C12 [2] = assay: Western blot of phosphorylated AMPK; format: cell-based; settings: 1 μM each, day 4; control 1.29±0.27%
Experimental: as §1
We next studied if these changes in AMP/ATP ratio had any effect in AMPK activation.

C2C12 [3] = assay: AMPK phosphorylation assay kit (short time points); format: cell-based; settings: myoblast, 1 μM, 10 min after switching to 2% HS; control 1.97±0.17
Experimental: Assay was performed with the AMPK phosphorilation assay kit (Abnova Corporation, Jhouzih St, Taiwan) as manufactor instructions and pAMPK was measured at λex/em 530/585 nm and 360/450 nm for total protein with Tecan Infinite.

[4] = test system: K/B×N serum transfer-induced arthritis; assay: K/B×N serum transfer-induced arthritis, acute model: joint thickness, clinical score, body weight; format: in vivo, C57BL/6J mice
Experimental: In their quest for a model of inflammatory arthritis which could display associated sarcopenia the inventors employed serum transfer from K/B×N progeny in 12-wk-old C57BL/6J mice. Arthritic K/B×N mice were generated by crossing KRN mice with NOD/Lt mice. Serum was collected and pulled. Age-matched, male recipient, 12-wk-old C57BL/6J mice were purchased from Charles River Laboratories (Barcelona, España). C57BL/6J mice were injected with pooled serum (100 μl, I.P.) from K/B×N mice on day 0 and 2.
(§2) Development of arthritis was assessed daily, and the severity of arthritis was assessed in each paw on a 4-point scale defined as follows: 0=normal appearance, 1=localized edema/erythema over one surface of the paw, 2=edema/erythema involving more than one surface of the paw, and 3-4=marked edema/erythema involving the whole paw. Scores of all 4 paws were added for a composite score. All motor activity tests were performed prior to serum inoculation and at the highest point of inflammation. Mice were euthanized on day 14. Gastronemius and quadriceps were collected for protein and RNA extraction. Tibialis and soleus were included for freeze histology following the indications of H. Meng (1). Bones were prepared for micro-computed tomography (microCT) and histology. White adipose tissue (WAT) and brown adipose tissue (BAT) were collected for histology and protein extraction. Blood was drawn and serum was isolated for measurement of inflammatory cytokines and C-reactive protein (CPR).
Animals were sacrificed 30 days after serum transfer.
as §2, with “Mice were weighted weekly. Development” for “Development”, “16 for acute inflammation model or 30 days for Inflammation resolved model. A representative photo of body structure and muscle of pawn were taken on this day.” for “14.”, “was” for “and quadriceps were”, “(see references in ref. 44).” for “(1).”, “histology.” for “histology. White adipose tissue (WAT) and brown adipose tissue (BAT) were collected for histology and protein extraction.”

[5] = test system: K/B×N serum transfer-induced arthritis; assay: Tissues weight at collection, acute model of inflammation; format: in vivo, C57BL/6J mice
Experimental: Data collected for absolute weight are correlated with mouse weight to obtain relative weight (*indicates differences with the sham group and $ indicates differences with the arthritic group). WAT, white adipose tissue; BAT, brown adipose tissue. Values are presented as mean±SEM. […]
as §2, with “Mice were weighted weekly. Development” for “Development”, “16 for acute inflammation model or 30 days for Inflammation resolved model. A representative photo of body structure and muscle of pawn were taken on this day.” for “14.”, “was” for “and quadriceps were”, “(see references in ref. 44).” for “(1).”, “histology.” for “histology. White adipose tissue (WAT) and brown adipose tissue (BAT) were collected for histology and protein extraction.”

[6] = test system: K/B×N serum transfer-induced arthritis; assay: Western blot of gastronemius, acute model
C2C12 myoblast cell line = assay: Western blot of C2C12 under pro-inflammatory conditions with/without dipyridamole
Experimental: Western blot was performed as described above.
Protein concentration was determined by BCA. 4 μg for cells and 40-50 μg for tissue samples of protein was subjected to 6-15% SDS-PAGE and transferred to a nitrocellulose membrane. Membranes were blocked with 3% BSA in Tris-buffered saline containing 0.1% Tween-20 (TBS-T). After that, the membranes were incubated overnight at 4° C. with the primary antibodies for A2A, A2B, MHC (Thermo Fisher Scientific, Waltham, USA), AMPK, pAMPK (Thr172), p21, p16 (Cell signaling, Danvers, EEUU) (1:1000 each) and Pax-7 (Developmental Studies Hybridoma Bank, Houston, EEUU) (1:500 each).

[7] = test system: K/B×N serum transfer-induced arthritis; assay: Histological analysis of tibialis anterior (H&E, ATPase, picrosirius red, oil red O)
Experimental: Analysis of tibialis tissue structure by Hematoxylin and eosin (H&E) staining was performed. Frozen samples were sectioned at 10 μm. For staining and subsequent processing by image segmentation we followed the indications established by Liu et al (53). Briefly, sections were brought from −80° C. to room temperature and immediately immersed in methanol for 30 min to improve fixation and stained with Hematoxylin and eosin. Image analysis was performed with ImagePro 2.2 using the Muscle Morphometry plugin following Liu's protocol.
H&E staining was performed on frozen tibialis anterior (TA). Frozen samples were section at 10 μm. For staining and subsequent processing by image segmentation we followed the indications established by Liu et al (53). Briefly, sections were brought from −80° C. to room temperature and immediately immersed in methanol for 30 min to improve fixation and stained with hematoxylin and eosin. Image analysis of cross-sectional area (CSA) was performed with ImagePro 2.2 using the Muscle Morphometry plugin following Liu's protocol.
ATPase staining was performed in TA 10 μM cross-sections as previously described (2). Briefly, cross-sections were incubated 45 min in 0.1 M glycine/NaCl buffer pH 9.4 with 0.75 M CaCl2 and 5 mg ATP (Sigma-Aldrich). After rinsed in distilled water, sections were incubated in 2% cobalt chloride, and then immersed in dilute (1/10) ammonium chloride to develop type 1 (white) and type 2 (black) fibers. After dehydration, sections were mounted with DPX mounting medium (VWR International Ltd., Lutterworth, UK). The quantification of the fiber types was performed using the Image J software package 1.49v (NIH, Bethesda, MD, USA).
Picrosirius Red staining was performed in TA to visualized tissue fibrosis. Slides were air-drayed for 30 min at room temperature and fixed in PFA 4% 30 min. Next, the sections were incubated for 90 min in picrosirius red solution (Polysciences) and immersed immediately in 0.1M HCl solution (Polysciences) for 1 min. The sections were washed 2 times in H2O, dehydrated in serial dilutions of alcohol and mounted with DPX. Bright field and polarized light images were taken. The quantification of infiltration of collagen I were performed using the Image J software package 1.49v (NIH, Bethesda, MD, USA) on polarized images.
To visualize triglycerides infiltration in the muscle, serial frozen TA 10 μm cross-sections were thaw and air dry and fixed in PFA 4% for 1 h before oil red O staining. […] Then we isolate the oil red staining retained in muscle with 200 μL of isopropanol in agitation to quantify the fat infiltrated in every muscle. The oil red released was read from 75 μL samples in a 96-well plate by Tecan Spark 20M in duplicate at 500 nm.

[8] = healthy mice, dipyridamole alone, Sham 100±1%

OCCN(CCO)c1nc(N2CCCCC2)c2nc(N(CCO)CCO)nc(N3CCCCC3)c2n1 [dipyridamole, 2,6-bis(Diethanolamino)-4,8-dipiperidinopyrimido[5,4-d]pyrimidine]
Proliferation (C2C12 cells): No significant changes
PAX7 protein expression (% of basal) (C2C12 [1]; day 1, control 315±58%): revert the effect to control levels
MyoD protein expression (% of basal) (C2C12 [1]; day 2, control 182±8%): 162±29%
Myf5 protein expression (% of basal) (C2C12 [1]; first 2 days of differentiation): did not modulate
pAMPK (Western blot) (C2C12 [2]): 2.66±0.7%
AMPK activation (C2C12 [3]): 2.89±0.29
Weight loss ([4]; arthritic mice, 2 weeks of treatment, arthritic 14.2±4.1%): 6.2±3.4%
Paw (joint) thickness ([4]; arthritic mice, daily dipyridamole, 2 wk, arthritic 1.72±0.09): 0.5±0.01 mm
Clinical score (inflammation) ([4]; arthritic mice, daily dipyridamole, 2 wk, arthritic 14±1): 5±3
Hind paw musculature (macroscopic) ([4]; healthy mice, dipy alone, two weeks): no significant changes
Percentage of weight ([4]; healthy mice, dipyridamole 25 mg/kg/day alone, 2 weeks): did not change
BAT, Absolute weight ([5]; RA + Dipy): 0.157 ± 0.005 g
EDL, Absolute weight ([5]; RA + Dipy): 0.010 ± 0.013 g
Gastronemius, Absolute weight ([5]; RA + Dipy): 0.123 ± 0.004 g
Quadriceps, Absolute weight ([5]; RA + Dipy): 0.15 ± 0.01 g
Soleus, Absolute weight ([5]; RA + Dipy): 0.008 ± 0.001 g
Tibialis, Absolute weight ([5]; RA + Dipy): 0.056 ± 0.004 g
WAT, Absolute weight ([5]; RA + Dipy): 0.198 ± 0.018 g
Bodyweight, Absolute weight ([5]; RA mice + Dipy 25 mg/kg/day): 22.12 ± 0.18 g
BAT, Absolute weight ([5]; healthy mice, Dipy alone): 0.16 ± 0.003 g
EDL, Absolute weight ([5]; healthy mice, Dipy alone): 0.011 ± 0.008 g
Gastronemius, Absolute weight ([5]; healthy mice, Dipy alone): 0.174 ± 0.007 g
Soleus, Absolute weight ([5]; healthy mice, Dipy alone): 0.011 ± 0.002 g
Tibialis, Absolute weight ([5]; healthy mice, Dipy alone): 0.08 ± 0.009 g
WAT, Absolute weight ([5]; healthy mice, Dipy alone): 0.22 ± 0.02 g
Bodyweight, Absolute weight ([5]; healthy mice, Dipy alone 25 mg/kg/day): 24.26 ± 1.72 g
CK protein expression ([6]; RA+Dipy, RA 77.98±10.81%, Sham 100±0%): 393.4±55.09%
A2B receptor expression in gastronemius ([6]; arthritic mice + dipyridamole, arthritic 35±9%, Sham 100±1%): 160±14%
AMPK phosphorylation in gastronemius ([6]; arthritic mice + dipyridamole, arthritic 53±7%, sham 100±1%): 152±5%
MHC protein expression in gastronemius ([6]; arthritic mice + dipyridamole, arthritic 60±7%, sham 100±1%): 184±6%
A2A receptor expression in gastronemius ([6]; arthritic mice + dipyridamole, arthritic 71±3%, Sham 100±1%): 123±6%
Pax7 protein expression in gastronemius ([6]; arthritic mice + dipyridamole, arthritic 151±13%, sham 100±1%): 274±11%
p21 protein expression ([6]; arthritic mice + dipyridamole, arthritic 221±38%): 64±15%
p16 protein expression ([6]; arthritic mice + dipyridamole, arthritic 392±25%): 139±32%
Pax7 and MHC protein expression in gastronemius ([6]; healthy mice, dipy alone vs sham): non-significant increase
A2A receptor expression in gastronemius [6, 8]: 118.8±11.30%
A2B receptor expression in gastronemius [6, 8]: 167.6±10.63%
pAMPK expression in gastronemius [6, 8]: 194.2±5.2%
CREB expression (vs 100% basal) (C2C12 myoblast cell line; 24 h of differentiation): 361.5±68.8%
AMPK activation (C2C12 myoblast cell line; cytokine/LPS ± dipyridamole 1 μM, day 4, control 222.7±23.9%): did not increase AMPK levels
PKAα expression (C2C12 myoblast cell line; day 4, dipyridamole combined with IL-6, IL-6 alone 107±5.8%): 245.3±34.3%
PKAα expression (C2C12 myoblast cell line; day 4, dipyridamole combined with INFγ, INFγ alone 101.7±3.7%): 245.3±34.3%
PKAα expression (C2C12 myoblast cell line; day 4, control 213.9±21.6%): 245.3±34.3%
Myogenesis (PAX7, MHC) (C2C12 myoblast cell line; dipyridamole 1 μM alone): did not modulate myogenesis
Collagen I fibers (Picrosirius Red) ([7]; RA+Dipy, RA 111.1±1.20%, Sham 100±1.26%): 94.78±0.98%
Fat infiltrate in TA (Oil Red staining) ([7]; RA+Dipy, RA 170.1±6.94%, Sham 100±3.97%): 99.21±7.217%
Tibialis muscle fiber area ([7]; arthritic mice + dipyridamole, acute model, arthritic 508±20, sham 1211±43): 1305±35 μm^2
Fat infiltration across whole muscle (TA and EDL) ([7]; healthy mice, dipy alone): able to decrease this fat infiltration
